The values that follow come from patent US7589079B2, “Crystalline and amorphous forms of beta-L-2′-deoxythymidine” (Novartis AG, priority 2002, dated 2009).

≈ marks a conversion by molar mass, not a printed value. Marks after values point to notes of the source that are not given here.

Data set [1] is described as follows: Approximate solubilities in various solvents at ambient temperature (crystallization screen). The format is physicochemical. How it is done: A weighed sample of L-dT (usually 20-30 mg) was treated with aliquots of the test solvent. Solvents were either reagent or HPLC grade. The aliquots were usually 100 μL or 500 μL. Between additions the mixture was sonicated. When the solids dissolved, as judged by visual inspection, the solution was filtered, then left in an open vial under ambient conditions (fast evaporation). The procedure was repeated, and the resulting solution was left under ambient conditions in a vial with aluminum foil containing pinholes (slow evaporation). Samples were also generated by filtering a warm solution of L-dT into a cold antisolvent (cold precipitation).
Solubilities were estimated from these experiments based on the total solvent used to give a solution. Note that actual solubilities may be greater than those calculated because of the use of too-large solvent aliquots or a slow rate of dissolution.
Approximate solubilities of L-dT in various solvents at ambient temperature were determined during the crystalline screen, and are summarized in Table 1.

Data set [2] in a line: Moisture sorption/desorption (VTI SGA-100 Vapor Sorption Analyzer). The data set is classed as physicochemical. The note with it: for Weight lost upon lowering the relative humidity (in words): lowering relative humidity from 95% RH to 5% RH; for Moisture balance: weight gain at 95% RH: sorption up to 95% RH; for Moisture balance: loss from 95-5% RH: desorption from 95% to 5% RH; for Moisture balance: weight loss at 5% RH: equilibration at 5% RH. How it is done: Moisture sorption/desorption data were collected on a VTI SGA-100 Vapor Sorption Analyzer. Sorption and desorption data were collected over a range of 5% to 95% relative humidity (RH) at 10% RH intervals under a nitrogen purge. Samples were not dried prior to analysis. Equilibrium criteria used for analysis were less than 0.0100% weight change in 5 minutes, with a maximum equilibration time of 3 hours if the weight criterion was not met. Data were not corrected for the initial moisture content of the samples. NaCl and PVP were used as calibration standards.

Setting [3] is: solvent 1,1,1,3,3,3-hexafluoroisopropanol.
The mark [4] stands for this setting: solvent N,N-dimethylformamide (DMF).
The mark [5] stands for this setting: solvent ethanol (EtOH), after 2 hours, all solid was dissolved.

Take `Cc1cn([C@@H]2C[C@@H](O)[C@H](CO)O2)c(=O)[nH]c1=O` [crystalline L-dT, beta-L-2′-deoxythymidine]: the Solubility in data set [1] (setting [3]) is recorded as 22 mg/mL (≈ 90.8 mM); in data set [1] (solvent 2,2,2-trifluoroethanol), 8 mg/mL (≈ 33 mM); in data set [1] (solvent MeOH:water (1:1)), 58 mg/mL (≈ 239 mM); in data set [1] (setting [4]), 72 mg/mL (≈ 297 mM); in data set [1] (solvent THF:water (1:1)), 127 mg/mL (≈ 524 mM); in data set [1] (solvent acetone), less than 4 mg/mL. For the same molecule, the Solubility in data set [1] (solvent acetone:water (4:1)) is 51 mg/mL (≈ 211 mM); in data set [1] (solvent acetonitrile (ACN)), less than 4 mg/mL; in data set [1] (solvent dichloromethane), less than 3 mg/mL; in data set [1] (setting [5]), >3.6* mg/mL; in data set [1] (solvent ethyl acetate (EtOAc)), less than 4 mg/mL; in data set [1] (solvent ethyl ether), less than 3 mg/mL. For the same molecule, the Solubility in data set [1] (solvent hexane) is recorded as less than 4 mg/mL; in data set [1] (solvent isopropanol IPA), less than 3 mg/mL; in data set [1] (solvent methanol (MeOH)), 11 mg/mL (≈ 45.4 mM); in data set [1] (solvent tetrahydrofuran (THF)), 4 mg/mL (≈ 16.5 mM); in data set [1] (solvent toluene), less than 4 mg/mL; in data set [1] (solvent water) it was 32 mg/mL (≈ 132 mM). The “Weight lost upon lowering the relative humidity (in words)” value in data set [2] was “All of this weight is lost”. The “Moisture balance: weight gain at 95% RH” value in data set [2] is 1.1%.

Take `Cc1cn([C@@H]2C[C@@H](O)[C@H](CO)O2)c(=O)[nH]c1=O` [Lot No. 1, beta-L-2′-deoxythymidine]: in data set [2] (listed as 1), the “Moisture balance: loss from 95-5% RH” value is listed as 1.1% loss from 95-5% RH, the “Moisture balance: weight loss at 5% RH” value is less than 0.1% weight loss at 5% RH and the “Moisture balance: weight gain at 95% RH” value was found to be 1.1% weight gain at 95% RH.

On to `Cc1cn([C@@H]2C[C@@H](O)[C@H](CO)O2)c(=O)[nH]c1=O` [Lot No. 2, beta-L-2′-deoxythymidine], for which, in data set [2] (listed as 2), the “Moisture balance: loss from 95-5% RH” value is 2.7% loss from 95-5% RH, the “Moisture balance: weight loss at 5% RH” value is on record as −0.4% weight loss at 5% RH and the “Moisture balance: weight gain at 95% RH” value is listed as 2.8% weight gain at 95% RH.

As for `Cc1cn([C@@H]2C[C@@H](O)[C@H](CO)O2)c(=O)[nH]c1=O` [L-dT, beta-L-2′-deoxythymidine], in data set [1] (in acetone, acetonitrile, ethyl acetate, diethyl ether, isopropanol, methylene chloride, and toluene), the “Solubility (in words)” value is given as “sparingly soluble”. Moreover, the Solubility in data set [1] (setting [3]) was determined as 22 mg/mL (≈ 90.8 mM); in data set [1] (solvent 2,2,2-trifluoroethanol), 8 mg/mL (≈ 33 mM); in data set [1] (solvent MeOH:water (1:1)) it was 58 mg/mL (≈ 239 mM); in data set [1] (setting [4]), 72 mg/mL (≈ 297 mM); in data set [1] (solvent THF:water (1:1)), 127 mg/mL (≈ 524 mM); in data set [1] (solvent acetone:water (4:1)) it was 51 mg/mL (≈ 211 mM). Further, the figures for the Solubility in data set [1] (setting [5]), in data set [1] (solvent methanol (MeOH)) and in data set [1] (solvent water) were more than 4 mg/mL, 11 mg/mL (≈ 45.4 mM) and 32 mg/mL (≈ 132 mM), respectively.

Consider `Cc1cn([C@@H]2C[C@@H](O)[C@H](CO)O2)c(=O)[nH]c1=O` [amorphous L-dT, beta-L-2′-deoxythymidine], for which, in data set [2], the “Moisture balance: weight loss at 5% RH” value is given as approximately 0.4% and the “Weight lost upon lowering the relative humidity (in words)” value is reported as “loses almost all of this weight”. Besides, the “Moisture sorption: weight gain up to about 55% RH” value in data set [2] (sorption up to about 55% RH) is on record as approximately 2.3%.

As a reminder, the Solubility is how much of the substance goes into solution per volume.
